Results as given in patent US11484529B2, “Desmethylanethole trithione derivatives for the treatment of diseases linked to mitochondrial reactive oxygen species (ROS) production” (OP2 Drugs, priority 2017, dated 2022).

Experiments:
NAD(P)H oxidase = assay: Non-mitochondrial ROS/H2O2 production by NAD(P)H oxidase (Amplex Red); format: biochemical; details: no mitochondria; for effect on ROS measurement with NAD(P)H oxidase: 10 to 100 μM; for averaged percentage of ROS production across all concentrations tested: NAD(P)H oxidase, FIG. 22A
Method: Rates of ROS/H2O2 production from heart mitochondria were assessed through the oxidation of the colorless, non-fluorescent indicator Amplex Red in the presence of exogenous horseradish peroxidase (HRP, EC 1.11.1.7, Sigma). H2O2 reacts with Amplex Red in a 1:1 stoichiometry, yielding the fluorescent compound resorufin (excitation: 560 nm; emission: 585 nm) which is stable once formed. Fluorescence was measured continuously with a spectro-fluorometer equipped with temperature control and stirring (SAFAS Xenius, Monaco). Isolated mitochondria (0.1 mg/mL) were incubated in the same experimental buffer than previously, supplemented with 15 μM Amplex Red and 10 μg/mL HRP. Glutamate (5 mM)/malate (2.5 mM) together with succinate (5 mM) were used as complex I and complex II substrates, respectively. Experiments were conducted under non-phosphorylating conditions in the presence of 15 μM atractyloside, i.e., under state IV conditions where […]. Afterwards, rotenone (1.5 μM), antimycin A (2 μM), and myxothiazol (0.2 μM) were sequentially added to inhibit the redox centers within the electron transfer chain (FIG. 2), namely sites IQ, IF (with rotenone), IIIQi (with antimycin A) and IIIQO (with myxothiazol). Assay was finally calibrated with known amounts of H2O2 (steps of 300 nM), in the presence of all relevant compounds, including AOL. The control test of the absence of effect of AOL on the Amplex Red assay itself and NAD(P)H oxidase ROS/H2O2 production was carried out in the absence of cardiac mitochondria and the presence of NAD(P)H oxidase (EC 1.6.3.3, 5 mU/mL, Sigma) and NADH (100 μM) solutions.
The specificity of AOL was further tested in vitro using the peroxidase-Amplex Red system utilized for the measurement of ROS/H2O2 by mitochondria, which in fact measures the appearance of H2O2 by the oxidation of Amplex Red to the fluorescent resorufin (see FIG. 4). In the absence of mitochondria and by adding instead a H2O2-producing system to the measuring system, it was possible to test the effect of AOL on this system. This has been carried out by using commercial NAD(P)H oxidase which produces H2O2 in the presence of added NAD(P)H and measuring the reduction of Amplex Red to resorufin (FIG. 4).
Isolated mitochondria (0.1 mg/mL) were incubated in the same experimental buffer than previously, supplemented with 15 μM Amplex Red and 10 μg/mL HRP. Glutamate (5 mM)/malate (2.5 mM) together with succinate (5 mM) were used as complex I and complex II substrates, respectively. Experiments were conducted under non-phosphorylating conditions in the presence of 15 μM atractyloside. Afterwards, rotenone (1.5 μM), antimycin A (2 μM), and myxothiazol (0.2 μM) were sequentially added to inhibit the redox centers within the electron transfer chain (see FIG. 2), namely sites IQ, IF (with rotenone), IIIQi (with antimycin A) and IIIQO (with myxothiazol). Assay was finally calibrated with known amounts of H2O2 (steps of 300 nM), in the presence of all relevant compounds, including AOX. The control test of the absence of effect of AOL, AOX and Oltipraz on the Amplex Red assay itself and NAD(P)H oxidase […] production was carried out in the absence of cardiac mitochondria and the presence of NAD(P)H oxidase (EC 1.6.3.3, 5 mU/mL, Sigma) and NADH (100 μM) solutions.
The mechanism of action of AOX was further tested in vitro using the peroxidase-Amplex Red system utilized for the measurement of ROS/H2O2 by mitochondria, which in fact measures the appearance of H2O2 by the oxidation of Amplex Red to the fluorescent resorufin (FIG. 22). In the absence of mitochondria and by adding instead a H2O2-producing system to the assay, it was possible to test the effect of AOX on this non-mitochondrial superoxide/H2O2 production. This has been carried out by using commercial NAD(P)H oxidase which produces H2O2 in the presence of added NAD(P)H and measuring the reduction of Amplex Red to resorufin. […]

site IQ = assay: ROS/H2O2 production, site targeted individually (96-well Amplex Red), 10 mM succinate alone; format: biochemical, rat; details: 0 to 80 μM; effect at concentrations as low as 2.5 μM
Method: After freshly isolating mitochondria from rat heart, then measuring protein quantity of the mitochondrial suspension, H2O2 production in response to the exogenous addition of increasing concentrations of AOL, AOX and Oltipraz was measured fluorimetrically with Amplex Red and horseradish peroxidase (HRP).
The two major sites of mitochondrial ROS/H2O2 production were targeted individually using the combination of succinate (energy substrate of respiratory complex 2) and known inhibitors of respiratory chain, namely for site IQ, 10 mM succinate alone (CCCP as positive control) and for site IIIQouter, 10 mM succinate, 4 μM rotenone and 2.5 μM antimycin A (myxothiazol as positive control). These “reaction” solutions were designed to generate maximal rates of ROS/H2O2 production predominantly from a single site within the chain (Quinlan et al. 2013. Redox Biol. 1:304-12).
For measurement, a working solution of 50 μM Amplex red reagent and 20 μg/ml HRP was mixed to the reaction buffer into the corresponding wells of a 96-well plate (Greiner 96 F-bottom), in the absence or presence of increasing concentrations (from 0 to 80 μM) of AOL, AOX or Oltipraz. Addition of mitochondria to a final concentration of 0.125 mg/mL per well initiated the assay. The appropriate total volume per microplate well was 200 μL.
Plates were incubated in the dark at room temperature for 20-25 minutes. A double orbital shaking (100 rpm-3 seconds) was applied before reading the endpoint fluorescence values on a CLARIOstar plate reader (BMG LABTECH GmbH, Germany). In fact, H2O2 reacts with Amplex Red in a 1:1 stoichiometry, yielding the fluorescent compound resorufin that was analyzed using the following optic settings (excitation wavelength at 546-20 nm; emission at 600-40 nm; gain: 750).
Also, an H2O2 standard curve, with concentrations ranging from 0 to 5 μM, was prepared in the experimental buffer that consisted in (in mM): 140 sucrose, 100 KCl, 1 EGTA, 20 MgCl2, 10 KH2PO4, and 1 g/L (w/v) BSA essentially fatty acid free (pH 7.2). […]

COc1ccc(-c2cc(=S)ss2)cc1 [AOL, 5-(4-methoxyphenyl)-3H-1,2-dithiole-3-thione]
effect on ROS measurement with NAD(P)H oxidase (NAD(P)H oxidase): no global effect | averaged percentage of ROS production across all concentrations tested (NAD(P)H oxidase): 99.2% | inhibition of fluorescence in NAD(P)H oxidase/Amplex Red system (NAD(P)H oxidase; results not shown): did not observe any inhibition | inhibition of ROS production in site IQ (site IQ): strongly inhibit the ROS production by complex I

Oc1ccc(-c2cc(=S)ss2)cc1 [AOX, 5-(4-hydroxyphenyl)-3H-1,2-dithiole-3-thione]
effect on ROS measurement with NAD(P)H oxidase (NAD(P)H oxidase): no global effect | averaged percentage of ROS production across all concentrations tested (NAD(P)H oxidase): 109.9% | inhibition of ROS production in site IQ (site IQ): strongly inhibit the ROS production by complex I
